According to patent US5863905A, “2',5'-phosphorothioate/phosphodiester oligoadenylates and anti-viral uses thereof” (Temple University-Of The Commonwealth System of Higher …, priority 1997, dated 1999):
Entries after “also recorded” stand apart in the source; their conditions may differ.

Key:
serum phosphodiesterases = assay: Stability of 2-5A core derivatives to serum phosphodiesterase; format: in vitro ADME, fetal calf; conditions: 300 μM, 37° C.; for Hydrolysis Products: 10% fetal calf serum, 6 h, identified by HPLC; for % Hydrolysis: RPMI-1640 + 10% fetal calf serum, 6 h (A2, A3: 20 min)
Description: The stability of authentic 2-5A and phosphorothioate/phosphodiester trimer and tetramer core derivatives (300 μM) was determined by incubation in 200 μL of RPMI-1640 medium supplemented with 10% fetal calf serum in 5% CO2 -in-air at 37° C. Aliquots (30 μL) were removed at time zero and 6 hours. The hydrolysis products were identified by HPLC as described in Kariko et al. , Biochemistry 26: 7127-7135 (1987).
No hydrolysis of the phosphorothioate/phosphodiester trimer core derivatives was observed. However, the phosphorothioate/phosphodiester tetramer core derivatives were hydrolyzed from the 5'- or 2',3'-terminus, depending on the location of the phosphorothioate-substituted internucleotide linkage.

RNase L = assay: rRNA cleavage assay in L929 cell extracts (activation of RNase L); format: biochemical; conditions: 1 h at 30° C., > = no activation up to this concentration
Description: FIG. 2A represents the results of a ribosomal RNA cleavage assay with 2',5'-phosphorothioate/phosphodiester trimer core 2-5A derivatives. The procedure was performed according to the method of Kariko et al., Biochemistry 26: 7127-7135 (1987). 2-5A oligomer (phosphodiester internucleotide linkage) is also included for comparison. L929 cell extracts were incubated in the absence (lane 1) or presence of p3 A3 at 10^-8 M (lane 2), ARp *ApA at 10^-6 M (lane 3), ASp *ApA at 10^-6 M (lane 4), ApARp *A at 10^-6 M (lane 5), ApASp *A at 10^-6 M (lane 6) or A3 at 10^-6 M (lane 7). The positions of 28S and 18S rRNA are shown; the arrows indicate the positions of the well-characterized specific cleavage products (SCP) of RNase L.
FIG. 2B represents the results of a ribosomal RNA cleavage assay performed according to the method of FIG. 2A with 2',5'-phosphorothioate/phosphodiester trimer 5'-monophosphate derivatives. L929 cell extracts were incubated in the absence (lane 1) or presence of p3 A3 at 2×10^-9 M (lane 2), pA3 at 10^-6 M (lane 3), pARp *ApA at 10^-7 M (lane 4), pASp *ApA at 10^-7 M (lane 5), pApARp *A at 2×10^-9 M (Lane 6), pApASp *A at 10^-7 M (lane 7).
FIG. 3A represents the results of a ribosomal RNA cleavage assay performed according to the method of FIG. 2A with 2',5'-phosphorothioate/phosphodiester tetramer core 2-5A derivatives. 2-5A oligomer (phosphodiester internucleotide linkage) is also included for comparison. L929 cell extracts were incubated in the absence (lane 1) or presence of p3 A4 at 10^-8 M (lane 2), A4 at 10^-5 M (lane 3), ARp *ApApA at 10^-5 M (lane 4), ASp *ApApA at 10^-5 M (lane 5), ApARp *ApA at 10^-5 M (lane 6), ApASp *ApA at 10^-5 M (lane 7), ApApARp *A at 10^-5 M (lane 8) or ApApASp *A at 10^-5 M (lane 9).
FIG. 3B represents the results of a ribosomal RNA cleavage assay performed according to the method of FIG. 2A with 2',5'-phosphorothioate/phosphodiester tetramer 5'-monophosphate derivatives. L929 cell extracts were incubated in the absence (lane 1) or presence of p3 A4 at 10^-8 M (lane 2), pA4 at 10^-6 M (lane 3), pARp *ApApA at 10^-6 M (lane 4), pASp *ApApA at 10^-6 M (lane 5), pApARp *ApA at 10^-8 M (lane 6), pApASp *ApA at 10^-5 M (lane 7), pApApARp *A at 10^-7 M (lane 8) or pApApASp *A at 10^-7 M (lane 9).
Activation of RNase L by the phosphorothioate/phosphodiester trimer and tetramer 2-5A derivatives was also measured in a rRNA cleavage assay using L929 cell extracts according to the method of Kariko et al. (1987), supra, in which extracts of L929 cells were incubated for 1 h at 30° C. in the presence or absence of 2-5A or 2-5A derivative. […] Authentic p3 A3 was active at 1×10^-8 M (FIG. 2A, lane 2). The corresponding 5'-monophosphates, pARp *ApA, pASp *ApA and pApARp *A, activated at 1×10^-7 M, 1×10^-7 M, and 2×10^-9 M, respectively (FIG. 2B, lanes 4-6), as compared with pA3 which was active at 1×10^-6 M (lane 3).

HIV-1 strain IIIB = assay: Inhibition of HIV-1-induced syncytia formation (infected centers assay); format: cell-based; conditions: for inhibition of HIV-1-induced syncytia formation: 3×10^-4 M, PBL infected with HIV-1 IIIB, Sup T1 cells, read at 72 h
Source text: FIG. 5A represents the results of an assay performed according to the method of Henderson et al., Virology 182: 186-198 (1991), indicating the inhibition of HIV-1 (IIIB)-induced syncytia formation by adenosine, 2-5A trimer or tetramer core or 2',5'- phosphorothioate/phosphodiester trimer derivatives: ARp *ApA, ASp *ApA, ApARp *A, ApASp *A, ARp *ApApA, ASp *ApApA, ApARp *ApA, ApASp *ApA, ApApARp *A, ApApASp *A.
FIG. 5B is the results of an assay performed according to the method of FIG. 5A with a 2',5'-phosphorothioate/phosphodiester tetramer derivative of 2-5A core.
The infected centers assay as described by Henderson et al., Virology 182: 186-198 (1991), was used to measure the ability of the phosphorothioate/phosphodiester derivatives of 2-5A trimer and tetramer cores to inhibit HIV-1 induced syncytia formation, an indicator of HIV-1 replication in T cells. Freshly isolated peripheral blood lymphocytes (PBL) were treated with 2-5A or derivatives for 2 h and infected with HIV-1 strain IIIB at a m.o.i. of approximately 0.1. The infected PEL were maintained in RPMI-1640 medium supplemented with 10% (v/v) heat-inactivated fetal calf serum at 37° C. in a humidified 5% CO2 in air atmosphere. After 48 h, the cells were washed twice in Hank's balaned salt solution, serially diluted and seeded into multiple wells of a 96-well microtiter plate. Immediately, 2×10^5 exponentially growing Sup T1 cells were added to each well; Sup T1 cells readily form a syncytium with a cell which is productively infected with HIV-1. The wells were examined daily for the presence of syncytia, using a tissue culture microscope. The first signs of syncytia formation can be seen in 12 h, with some complete syncytia developing by 24 h. Final results were read at 72 h. Each syncytium was counted as a single infected cell. The number of syncytia per seeded cell is determined and expressed as an infected center per infected cell. In the control (no 2-5A derivative added), 100% syncytia formation was equivalent to 12±3 syncytia per 200 HIV-1 infected cells.

[1] = tested on: HIV-1 reverse transcriptase; assay: HIV-1 reverse transcriptase activity in culture supernatant of infected Sup T1 cells; format: cell-based; conditions: 300 μM (adenosine and adenine 900 μM), 6 h pre-treatment, 96 h post-infection; average of triplicates
Description: Sup T1 cells were treated with 2-5A or a phosphorothioate/phosphodiester derivative at 300 μM for 6 hours and then infected with HIV-1 at a multiplicity of infection (M.O.I) of approximately 0.1. Adenosine and adenine were tested at 900 μM. At 96 hours post-infection, culture supernatant was removed and HIV-1 RT activity was assayed in triplicate as described by Henderson et al., Virology 182:186-198 (1991). Briefly in this method, 25 μl of culture supernatant was added to a 50 μl cocktail containing 50 mM Tris (pH 8.0), 20 mM dithiothreitol, 10 mM MgCl2, 60 mM NaCl, 0.05 Nonidet p-40, 5 μg/ml oligodeoxythymidylic acid, 10 μg/ml polyriboadenylic acid, 10 μM deoxythymidine triphosphate and 1 mCi [^32 p]thymidine 5'-triphosphate. The mixture was incubated at 37° C. for 2 hours. Fifty microliters of the cocktail were then spotted onto diethylaminoethyl (DEAE) paper, dried, washed with 2× SSC solution (three times for 10 minutes each time) and 95% ethanol (two times for 5 minutes each time), dried and exposed to radiographic film for 18 to 24 hours at -80° C. The filters were cut and final quantitation was determined by scintillation spectrometry.

[2] = tested on: 2-5A synthetase/RNase L pathway; HHV-6; conditions: CFS patients, cited from earlier work

Substance	Hydrolysis Products (serum phosphodiesterases)	% Hydrolysis (serum phosphodiesterases)	concentration at which RNase L is activated to cleave rRNA to SCP (RNase L)	inhibition of HIV-1-induced syncytia formation (HIV-1 strain IIIB)	Percent Inhibition of HIV-1 Reverse Transcriptase [1]	HHV-6 activity following therapy ([2]; p<0.01)	mean basal latent 2-5A synthetase level in PBMC extracts following therapy ([2]; controls 2035±325, P<0.001)	2-5A synthetase/RNase L pathway following therapy ([2]; in temporal association with clinical and neuropsychological improvement)	inhibition of syncytia formation (in words) (HIV-1 strain IIIB; 3×10^-4 M (adenosine 9×10^-4 M))
Adenylyl-(2',5')-(PR) -P-thioadenylyl-(2',5')-adenylyl-(2',5')-adenosine [ApARp *ApA]	inosine, hypoxanthine; also recorded: ARp *ApA	50%	10 µM	26%	52%	–	–	–	–
poly (I)-poly (C12 U)	–	–	–	–	–	significant decrease in HHV-6 activity	610±220 picomoles 2-5A/mg protein/hour	down regulation of the 2-5A synthetase/RNase L pathway	–
Adenylyl-(2',5')-(PS)-P-thioadenylyl-(2',5')-adenosine [ApASp *A]	not hydrolyzed	0%	> 1 µM	78%	78%	–	–	–	most efficient inhibitors of HIV-1 induced syncytia formation
